Results on 40 molecules are retold here after US9156811B2 (priority 2008, dated 2015).

The test system of the assay is Trypanosome (T. brucei brucei). As to the kind of experiment: In-vitro antitrypanosomal efficacy assay (cell growth, resazurin). The assay is classed as cell-based. The settings on record: T. brucei cell growth. (In general: Alamar Blue is a resazurin reagent that responds to reducing activity.)
Method: To column 12, 200 μl media was added to provide a no cells control. Plates were then incubated at 37° C. in an atmosphere of 5% CO2 for 69 hours, before the addition of 20 μl of 500 μM rezasurin solution, and a further incubation period of 4 hours. […] Concentration effect curves were fitted using non-linear regression using XLFit 4.2 and EC50 values determined.
As to `Cc1nn(C)c(C)c1N[S+](=O)([O-])c1ccc(N2CCC(NC3CCN(Cc4ccccc4)C3)CC2)nc1` (stereo not shown) [DDD86473], the “ED50 (μM) T. brucei” value is greater than 1 µM.
For `Cn1cc(N[S+](=O)([O-])c2ccc(-c3ccnc(N4CCNCC4)c3)cc2)cn1` [DDD86474, N-(1-Methyl-1H-pyrazol-4-yl)-4-(2-piperazin-1-yl-pyridin-4-yl)-benzenesulfonamide], the “ED50 (μM) T. brucei” value was 0.65 µM.
For the molecule `Cc1nn(C)cc1N[S+](=O)([O-])c1c(Cl)cc(-c2ccnc(N3CCNCC3)c2)cc1Cl` [DDD86475, 2,6-Dichloro-N-(1,3-dimethyl-1H-pyrazol-4-yl)-4-(2-piperazin-1-yl-pyridin-4-yl)-benzenesulfonamide], the “ED50 (μM) T. brucei” value came out at 0.003 µM.
For `Cc1nn(C)c(C)c1N[S+](=O)([O-])c1ccc(N2CCC(N3CCCCC3)C2)nc1` (stereo not shown) [DDD86477] the value was greater than 1 µM; for `Cn1cc(N[S+](=O)([O-])c2c(Cl)cc(-c3ccnc(N4CCNCC4)c3)cc2Cl)cn1` [DDD86478, 2,6-Dichloro-N-(1-methyl-1H-pyrazol-4-yl)-4-(2-piperazin-1-yl-pyridin-4-yl)-benzenesulfonamide], 0.24 µM.
To `Cc1nn(C)c(C)c1N[S+](=O)([O-])c1ccc(-c2ccnc(N3CCNC(C)C3)c2)cc1` (stereo not shown) [DDD87748] belongs 0.001 µM; to `Cc1nn(C)c(C)c1N[S+](=O)([O-])c1ccc(-c2ccnc(N3CCCCC3)c2)cc1` [DDD87749, 4-(3,4,5,6-Tetrahydro-2H-[1,2′]bipyridinyl-4′-yl)-N-(1,3,5-trimethyl-1H-pyrazol-4-yl)-benzenesulfonamide], 1.28 µM.
To `Cc1nn(C)c(C)c1N[S+](=O)([O-])c1ccc(-c2cccc(CCO)c2)cc1` [DDD87751, 3′-(2-Hydroxy-ethyl)-biphenyl-4-sulfonic acid (1,3,5-trimethyl-1H-pyrazol-4-yl)-amide] belongs greater than 1 µM; to `Cc1nn(C)c(C)c1N[S+](=O)([O-])c1ccc(-c2cccc(CN3CCNC(c4ccccc4)C3)c2)cc1` (stereo not shown) [DDD87754, 3′-(3-Phenyl-piperazin-1-ylmethyl)-biphenyl-4-sulfonic acid (1,3,5-trimethyl-1H-pyrazol-4-yl)-amide], 1.6 µM.
On to `Cc1nn(C)c(C)c1N[S+](=O)([O-])c1ccc(N2CCCC(N3CCNCC3)C2)nc1` (stereo not shown) [DDD87757], for which the “ED50 (μM) T. brucei” value was found to be 0.003 µM.
To `CCN(CC)Cc1ccccc1-c1ccc([S+](=O)([O-])Nc2c(C)nn(C)c2C)cc1` [DDD87758, 2′-Diethylaminomethyl-biphenyl-4-sulfonic acid (1,3,5-trimethyl-1H-pyrazol-4-yl)-amide] belongs greater than 1 µM.
For `Cc1nn(C)c(C)c1NS(=O)(=O)c1ccc(-c2ccnc(N3CC(C)NC(C)C3)c2)cc1` (stereo not shown) [DDD87761, 4-[2-(3,5-Dimethyl-piperazin-1-yl)-pyridin-4-yl]-N-(1,3,5-trimethyl-1H-pyrazol-4-yl)-benzenesulfonamide] the value was 0.02 µM.
Turning to `Cc1nn(C)c(C)c1N[S+](=O)([O-])c1ccc(-c2ccccc2CN2CCN(C)CC2)cc1` [DDD87764, 2′-(4-Methyl-piperazin-1-ylmethyl)-biphenyl-4-sulfonic acid (1,3,5-trimethyl-1H-pyrazol-4-yl)-amide], the “ED50 (μM) T. brucei” value is greater than 1 µM.
As for `Cc1nn(C)c(C)c1N[S+](=O)([O-])c1ccc(-c2cccc(CNCc3ccccc3)c2)cc1` [DDD87765, 3′-(Benzylamino-methyl)-biphenyl-4-sulfonic acid (1,3,5-trimethyl-1H-pyrazol-4-yl)-amide], the “ED50 (μM) T. brucei” value is greater than 1 µM.
Take `Cc1nn(C)c(C)c1N(C)[S+](=O)([O-])c1ccc(Br)cc1` [DDD87766, 4-Bromo-N-methyl-N-(1,3,5-trimethyl-1H-pyrazol-4-yl)-benzenesulfonamide]: the “ED50 (μM) T. brucei” value was greater than 1 µM.
For `Cc1nn(C)c(C)c1N[S+](=O)([O-])c1ccc(-c2cccc(C3CCNCC3)c2)cc1` [DDD87768, 3′-Piperidin-4-yl-biphenyl-4-sulfonic acid (1,3,5-trimethyl-1H-pyrazol-4-yl)-amide] the value was 0.06 µM; for `Cc1nn(C)c(C)c1N[S+](=O)([O-])c1c(Cl)cc(CCCN2CCN(C)CC2)cc1Cl` [DDD87769, 2,6-Dichloro-4-[3-(4-methyl-piperazin-1-yl)-propyl]-N-(1,3,5-trimethyl-1H-pyrazol-4-yl)-benzenesulfonamide], 0.008 µM.
To `Cc1ncccc1N[S+](=O)([O-])c1ccc(-c2ccnc(N3CCNCC3)c2)cc1` [DDD87994, N-(2-Methyl-pyridin-3-yl)-4-(2-piperazin-1-yl-pyridin-4-yl)-benzenesulfonamide] belongs 0.11 µM.
For `Cc1c(N[S+](=O)([O-])c2ccc(-c3ccnc(N4CCNCC4)c3)cc2)cnn1C` [DDD87995, N-(1,5-Dimethyl-1H-pyrazol-4-yl)-4-(2-piperazin-1-yl-pyridin-4-yl)-benzenesulfonamide] the value was 0.02 µM; for `Cc1nn(C)c(C)c1N[S+](=O)([O-])c1ccc(C#CCN2CCN(C)CC2)cc1` [DDD87999, 4-[3-(4-Methyl-piperazin-1-yl)-prop-1-ynyl]-N-(1,3,5-trimethyl-1H-pyrazol-4-yl)-benzenesulfonamide], greater than 1 µM; for `Cc1nn(C)c(C)c1N[S+](=O)([O-])c1ccc(NCCC2CCN(C)CC2)nc1` [DDD88000, 6-[2-(1-Methyl-piperidin-4-yl)-ethylamino]-pyridine-3-sulfonic acid (1,3,5-trimethyl-1H-pyrazol-4-yl)-amide], 0.77 µM.
On to `Cc1ncccc1N[S+](=O)([O-])c1ccc(-c2cccc(C3CCNCC3)c2)cc1` [DDD88003, 3′-Piperidin-4-yl-biphenyl-4-sulfonic acid (2-methyl-pyridin-3-yl)-amide], for which the “ED50 (μM) T. brucei” value was 1.9 µM.
For `Cc1nn(C)c(C)c1N[S+](=O)([O-])c1cc(F)c(Br)cc1F` [DDD88004, 4-Bromo-3,6-difluoro-N-(1,3,5-trimethyl-1H-pyrazol-4-yl)-benzenesulfonamide] the value was greater than 1 µM; for `Cc1nn(C)c(C)c1N[S+](=O)([O-])c1ccc(-c2cccc(CN(C)C)c2)cc1` [DDD88005, 3′-Dimethylaminomethyl-biphenyl-4-sulfonic acid (1,3,5-trimethyl-1H-pyrazol-4-yl)-amide], 0.1 µM.
Regarding `Cc1nn(C)c(C)c1N[S+](=O)([O-])c1c(Cl)cc(-c2cccc(CN3CCCC3)c2)cc1Cl` [DDD88009, 3,5-Dichloro-3′-pyrrolidin-1-ylmethyl-biphenyl-4-sulfonic acid (1,3,5-trimethyl-1H-pyrazol-4-yl)-amide], the “ED50 (μM) T. brucei” value amounted to 0.10 µM.
To `CCCOc1cc(CN2CCN(C)CC2)cc(-c2ccc([S+](=O)([O-])Nc3c(C)nn(C)c3C)cc2)c1` [DDD88187, 5′-(4-Methyl-piperazin-1-ylmethyl)-3′-propoxy-biphenyl-4-sulfonic acid (1,3,5-trimethyl-1H-pyrazol-4-yl)-amide] belongs 2.15 µM; to `Cc1noc(C)c1N[S+](=O)([O-])c1ccc(-c2cccc(C3CCNCC3)c2)cc1` [DDD88189, 3′-Piperidin-4-yl-biphenyl-4-sulfonic acid (3,5-dimethyl-isoxazol-4-yl)-amide], greater than 1 µM.
Regarding `Cc1nn(C)c(C)c1N[S+](=O)([O-])c1ccc(CCCN2CCN(C)CC2)cc1` [DDD88191, 4-[3-(4-Methyl-piperazin-1-yl)-propyl]-N-(1,3,5-trimethyl-1H-pyrazol-4-yl)-benzenesulfonamide], the “ED50 (μM) T. brucei” value was 0.67 µM.
For `Cc1nn(C)c(C)c1N(C)[S+](=O)([O-])c1c(Cl)cc(-c2ccnc(N3CCNCC3)c2)cc1Cl` [DDD88193, 2,6-Dichloro-N-methyl-4-(2-piperazin-1-yl-pyridin-4-yl)-N-(1,3,5-trimethyl-1H-pyrazol-4-yl)-benzenesulfonamide], the “ED50 (μM) T. brucei” value came to 0.005 µM.
For `Cc1nn(C)c(C)c1N[S+](=O)([O-])c1ccc(-c2cc(CN3CCN(C)CC3)cc(OC(C)C)c2)cc1` [DDD88194, 3′-Isopropoxy-5′-(4-methyl-piperazin-1-ylmethyl)-biphenyl-4-sulfonic acid (1,3,5-trimethyl-1H-pyrazol-4-yl)-amide] the value was 2.0 µM.
To `Cc1nn(C)c(C)c1N(C)[S+](=O)([O-])c1ccc(-c2cccc(CN3CCN(C)CC3)c2)cc1` [DDD88196, 3′-(4-Methyl-piperazin-1-ylmethyl)-biphenyl-4-sulfonic acid methyl-(1,3,5-trimethyl-1H-pyrazol-4-yl)-amide] belongs 0.05 µM.
To `Cc1nn(C)c(CC(C)C)c1N[S+](=O)([O-])c1c(Cl)cc(Br)cc1Cl` [DDD88197, 4-Bromo-2,6-dichloro-N-(5-isobutyl-1,3-dimethyl-1H-pyrazol-4-yl)-benzenesulfonamide] belongs 45.9 µM.
Turning to `Cc1c(N[S+](=O)([O-])c2c(Cl)cc(Br)cc2Cl)c(CC(C)C)nn1C` [DDD88198, 4-Bromo-2,6-dichloro-N-(3-isobutyl-1,5-dimethyl-1H-pyrazol-4-yl)-benzenesulfonamide], the “ED50 (μM) T. brucei” value is 2.3 µM.
For `Cc1nn(C)c(C)c1N[S+](=O)([O-])c1c(F)cc(Br)cc1F` [DDD88317] the value was greater than 10 µM; for `Cc1nn(C)c(C)c1N[S+](=O)([O-])c1ccc2nc(Cl)ccc2c1` [DDD88533], greater than 10 µM; for `Cc1nn(C)c(C)c1N[S+](=O)([O-])c1ccc(-c2ccnc(N3CCNC(C(C)C)C3)c2)cc1` (stereo not shown) [DDD88549], 0.11 µM.
For the molecule `Cc1nn(C)c(C)c1N[S+](=O)([O-])c1c(Cl)cc(CCCC2CCN(C)CC2)cc1Cl` [DDD88557], the “ED50 (μM) T. brucei” value is 0.002 µM.
In the case of `Cc1nn(C)c(C)c1N[S+](=O)([O-])c1ccc(CCCC2CCN(C)CC2)cc1` [DDD88559], the “ED50 (μM) T. brucei” value amounted to 0.038 µM.
For `Cc1nn(C)c(C)c1N[S+](=O)([O-])c1ccc(CCCN2CCNCC2)cc1` [DDD88580] the value was 1.13 µM.
For `CCN(CC)Cc1cccc(-c2cc(Cl)c([S+](=O)([O-])N(C)c3c(C)nn(C)c3C)c(Cl)c2)c1` [DDD88641] the value was 0.31 µM.
